# Patent publication US20250263436A1, “BROAD-SPECTRUM ANTIVIRAL DRUG FOR ENTEROVIRUS, AND APPLICATION” (WUHAN INSTITUTE OF VIROLOGY, CHINESE ACADEMY OF SCIENCES, priority 2020, published 2025)
# pIC50: −log10 of the molar value. Several values for one entry are separate records, joined by “and”; a condition that tells them apart may be missing. Equal entries are not always repeated.
# What was measured:
# [1] = Cytotoxicity of polypeptides in Vero cells (CCK-8); format: cell-based
# Experimental: (§1) Therefore, this standard was testified by cytotoxicity assay, and the cells without any treatment were used as a control group.
# (§2) (1) Vero cells were plated in a 96-well plate at 100 μL per well.
# (§3) (2) When the cells grew to a confluence of 70%-80%, the DMEM medium containing 10% serum was replaced with a DMEM medium containing 2% serum, and a certain concentration gradient of polypeptide RQ or LQ or SQ was added, so that the final concentrations of the polypeptide in the wells were 0.073242 μM, 0.146484 μM, 0.292969 μM, 0.585938 μM, 1.171875 μM, 2.34375 μM, 4.6875 μM, 9.375 μM, 18.75 μM, 37.5 μM, 75 μM and 150 μM, respectively.
# (§4) (3) The samples were collected 24 h after the addition of the polypeptide, and then 10 μL of live cell detection reagent CCK-8 was added to each well and mixed well.
# (§5) (4) The plate was placed at 37° C. for 2 h.
# (§6) (5) The absorbance value at OD450 was detected by a microplate reader.
# (§7) The CC50 of each polypeptide was calculated taking the cell viability of untreated cells as 100%.
# Vero cells = test: Cytotoxicity of polypeptides in Vero cells (CCK-8); format: cell-based; settings: Vero cells, 24 h
# Experimental: as §1, §2, §3, §4, §5, §6, §7
# EV71 [2] = test: Inhibition of EV71 in Vero cells (viral RNA, qRT-PCR); format: cell-based, enterovirus 71 (EV71); settings: anti-EV71 in Vero cells
# Experimental: (§8) (1) Different cells were plated in a 24-well plate.
# (§9) (2) When the cells grew to a confluence of 70%-80%, the DMEM medium containing 10% serum was replaced with a DMEM medium containing 2% serum (the DMEM medium containing 2% serum was added in each well at an amount of 0.5 mL), and 5 μL of EV71 virus of 1×10^6 PFU/mL was added to each well.
# (§10) (3) After 1 h, different polypeptides (RQ or control TAT) with final concentrations of 0.3125 μM, 0.625 μM, 1.25 μM, 2.5 μM, and 5 μM were added respectively. The group without polypeptide added was used as a control.
# (§11) (4) The samples were collected 24 h after the infection of EV71 virus, and RNA was extracted with the total RNA extraction kit.
# (§12) (5) The supernatant was discarded, then 350 μL of TRK lysate was added to each well, and the plate was put on a shaker for 5 min.
# (§13) (6) 350 μL of 70% ethanol (DEPC) was added to each well, and then the plate was put on a shaker for 5 min.
# (§14) (7) The solution in each well was transferred to a RNA extraction column for 1 min of centrifugation at 12000 g.
# (§15) (8) The solution obtained in the recovery tube was reloaded on the column again for 1 min of centrifugation at 12000 g.
# (§16) (9) RNA washing buffer 1 was added in the column for 30 s of centrifugation at 12000 g.
# (§17) (10) RNA washing buffer 2 was added in the column for 1 min of centrifugation at 12000 g.
# (§18) (11) Step (10) was repeated.
# (§19) (12) The column alone was centrifuged at 12000 g for 2 min to completely remove the residual RNA washing buffer.
# (§20) (13) 50 μL of DEPC water was added to the column for 2 min of centrifugation at 12000 g.
# (§21) (14) 2 μL of RNA sample was subjected to a fluorescence quantitative experiment using the one step qRT-PCR kit.
# (1) Vero E6 cells were plated in a 24-well plate.
# (3) After 1 h, different polypeptides (LQ or SQ) with final concentrations of 0.3125 μM, 0.625 μM, 1.25 μM, 2.5 μM, and 5 μM were added respectively. The group without polypeptide added was used as a control.
# EV71 [3] = test: Inhibition of EV71 in RD cells (viral RNA, qRT-PCR); format: cell-based, enterovirus 71 (EV71); settings: EV71, 24 h after infection
# Experimental: as §8, §9, §10, §11, §12, §13, §14, §15, §16, §17, §18, §19, §20, §21
# (3) After 1 h, different polypeptides (RQ or control TAT) with final concentrations of 0.3125 μM, 0.625 μM, 1.25 μM, 2.5 μM and 5 μM were added respectively. The group without polypeptide added was used as a control.
molecule,measurement,setting,value
CC[C@H](C)[C@H](NC(=O)[C@H](C)NC(=O)[C@H](CO)NC(=O)[C@H](CCCNC(=N)N)NC(=O)[C@H](CC(N)=O)NC(=O)[C@H](CC(N)=O)NC(=O)[C@H](Cc1ccc(O)cc1)NC(=O)[C@H](CCC(=O)O)NC(=O)[C@H](CCCNC(=N)N)NC(=O)[C@@H](NC(=O)[C@H](CC(C)C)NC(=O)[C@H](CCC(=O)O)NC(=O)[C@H](CO)NC(=O)CNC(=O)[C@H](CO)NC(=O)CNC(=O)[C@H](CCCNC(=N)N)NC(=O)[C@H](CCCNC(=N)N)NC(=O)[C@H](CCCNC(=N)N)NC(=O)[C@H](CCC(N)=O)NC(=O)[C@H](CCCNC(=N)N)NC(=O)[C@H](CCCNC(=N)N)NC(=O)[C@H](CCCCN)NC(=O)[C@H](CCCCN)NC(=O)[C@H](CCCNC(=N)N)NC(=O)CNC(=O)[C@@H](N)Cc1ccc(O)cc1)[C@@H](C)CC)C(=O)NCC(=O)N[C@@H](CC(N)=O)C(=O)N[C@H](C(=O)N[C@H](C(=O)N[C@@H](CCC(=O)O)C(=O)N[C@@H](C)C(=O)N[C@@H](CC(C)C)C(=O)N[C@@H](Cc1ccccc1)C(=O)N[C@@H](CCC(N)=O)C(=O)O)[C@@H](C)CC)[C@@H](C)O [SQ],CC50 at 24 h,"[1]; African green monkey, Table 1 (Vero cells)",134 µM
same,"viability at 24 h, 0.073242 µM","[1]; Vero cells, polypeptide 0.073242 μM, 24 h, read-out: Cell viability (%)",104%
same,"viability at 24 h, 0.146484 µM","[1]; Vero cells, polypeptide 0.146484 μM, 24 h, read-out: Cell viability (%)",98%
same,"viability at 24 h, 0.292969 µM","[1]; Vero cells, polypeptide 0.292969 μM, 24 h, read-out: Cell viability (%)",101%
same,"viability at 24 h, 0.585938 µM","[1]; Vero cells, polypeptide 0.585938 μM, 24 h, read-out: Cell viability (%)",94.4%
same,"viability at 24 h, 1.17188 µM","[1]; Vero cells, polypeptide 1.171875 μM, 24 h, read-out: Cell viability (%)",90.1%
same,"viability at 24 h, 2.34375 µM","[1]; Vero cells, polypeptide 2.34375 μM, 24 h, read-out: Cell viability (%)",96.6%
same,"viability at 24 h, 4.6875 µM","[1]; Vero cells, polypeptide 4.6875 μM, 24 h, read-out: Cell viability (%)",105%
same,"viability at 24 h, 9.375 µM","[1]; Vero cells, polypeptide 9.375 μM, 24 h, read-out: Cell viability (%)",99.5%
same,"viability at 24 h, 18.75 µM","[1]; Vero cells, polypeptide 18.75 μM, 24 h, read-out: Cell viability (%)",106%
same,"viability at 24 h, 150 µM","[1]; Vero cells, polypeptide 150 μM, 24 h, read-out: Cell viability (%)",70%
same,Cell viability (%),Vero cells; polypeptide 0.073242 μM,103.4468% and 96.07%
same,Cell viability (%),Vero cells; polypeptide 0.146484 μM,94.606% and 92.7401%
same,Cell viability (%),Vero cells; polypeptide 0.292969 μM,103.1624% and 100.4524%
same,Cell viability (%),Vero cells; polypeptide 0.585938 μM,103.9959% and 100.6225%
same,Cell viability (%),Vero cells; polypeptide 1.171875 μM,94.07% and 98.81%
same,Cell viability (%),Vero cells; polypeptide 2.34375 μM,101.1325% and 99.03%
same,Cell viability (%),Vero cells; polypeptide 4.6875 μM,106.7734% and 95.3706%
same,Cell viability (%),Vero cells; polypeptide 9.375 μM,102.9859% and 103.7701%
same,Cell viability (%),Vero cells; polypeptide 18.75 μM,100.481% and 90.25%
same,Cell viability (%),Vero cells; polypeptide 37.5 μM,100.7644% and 90.65% and 80.6%
same,Cell viability (%),Vero cells; polypeptide 75 μM,90.36% and 95.75% and 70.31%
same,Cell viability (%),Vero cells; polypeptide 150 μM,80.35% and 60.9948%
same,pIC50,EV71 [2],4.99
AC-qflaeitngiasrnnyergsgrrrqrrkkrgy-NH2 [RQ-DRI],Percentage of viral RNA in RD cells (%),EV71 [3]; polypeptide 0.3125 μM,90.2% and 150.7832% and 85.04%
same,Percentage of viral RNA in RD cells (%),EV71 [3]; polypeptide 0.625 μM,113.2834% and 92.13% and 108.0728%
same,Percentage of viral RNA in RD cells (%),EV71 [3]; polypeptide 1.25 μM,93.12% and 79.48% and 58.29%
same,Percentage of viral RNA in RD cells (%),EV71 [3]; polypeptide 2.5 μM,24.4% and 38.77% and 23.45%
same,Percentage of viral RNA in RD cells (%),EV71 [3]; polypeptide 5 μM,21.2764% and 19.04% and 17.19%
MBP-CVA16 2C protein,"helicase activity (unwinding of HEX-labeled dsRNA substrate, gel electrophoresis)",polypeptide RQ,RQ inhibited the helicase activity of CVA16 2C in a dose-dependent manner
